Experimental data published in patent US20250171404A1, “PCNA INHIBITORS AND USES THEREOF” (CITY OF HOPE, priority 2022, published 2025).

What was measured:
7SM0032 = test: Apoptosis (TUNEL assay), nonmalignant cells; type: cell-based, human; details: 500 nM, 24 h; 7SM0032 cells
Description: (§1) FIGS. 3A-3D. Therapeutic properties of AOH1996. FIG. 3A: Normal cells (7SM0032) or cancer cells (SH-SY5Y and SK-N-BE(2)c) cells were fixed, stained with PI, and analyzed by flow cytometry following treatment with 500 nM AOH1996 for the indicated time. FIG. 3B: SK-N-DZ neuroblastoma cells and nonmalignant 7SM0032 stem cells were incubated with 500 nM AOH1996 for 24 h. Then, after being fixed on slides, cell apoptosis were analyzed by a TUNEL assay. Left: TMR fluorophore attached to the free ends of DNA indicates cells undergoing apoptosis. DAPI stained nuclei also shown. Right: Average abundance ±S.D. of apoptotic 7SM0032 (black histogram) and SK-N-DZ (grey histogram) cells relative to the total number of cells are shown in 5 randomly selected fields. […] The relative number of colonies determined in triplicates for each treatment condition were averaged and graphed ±SDs (*, P<0.01). […] Cell growth was measured as the percentage of cell confluence by imaging every 6 h for a total of 48 h.
(§2) Cell apoptosis was measured on a chamber slide at a seeding density of 1×10^5/mL. After treatment with 500 nM AOH1996 for 24 h, cells were fixed and analyzed by a TUNEL assay using the TMR red in situ cell death detection kit (Roche Diagnostics).

γH2A.X = γH2A.X Western blot (DNA damage marker); type: cell-based, human
SH-SY5Y and SK-N-BE(2)c = test: Cell cycle analysis (PI, flow cytometry), cancer cells; type: cell-based, human; details: 500 nM
Description: as §1, with “fields. FIG. 3C: Human SK-N-DZ neuroblastoma cells were treated with or without the indicated concentrations of cisplatin in the absence or presence of 500 nM of AOH1996 for 18 hours.” for “fields.”
Cell Cycle Analysis. […] PI fluorescence intensity of the cells was measured by flow cytometry and the data was analyzed using the FlowJo program.

[1] = test system: SK-N-BE(2)c xenograft tumors; test: Xenograft tumor model, neuroblastoma; type: in vivo, mice
Description: FIGS. 4A-4H. Pharmacokinetics and anti-tumor growth activity of AOH1996 in vivo. FIG. 4A: After oral administration, the plasma concentrations of AOH1996 from three male and three female ES1^e/SCID mice at the indicated time points were averaged and graphed ±S.D. The inset contains PK parameters determined by a standard noncompartmental method. FIG. 4B: A similar PK study of AOH1996 was performed in dogs. FIGS. 4C-4E: Mice bearing the xenograft tumors of neuroblastoma (FIG. 4C: SK-N-BE(2)c), breast cancer (FIG. 4D: MDA-MB-468), and small-cell lung cancer (FIG. 4E: H82) were given vehicle only (black) or 40 mg/kg of AOH1996 (grey) twice daily immediately after the first measurement. Tumor sizes were measured by a dial caliper each week. Tumor volumes (0.4×L×W^2) were averaged and graphed ±S.E. (*, P<0.01). FIG. 4F: Animal body weight was monitored throughout the studies as an indicator of toxicity. Shown is a typical study results from the study of the SK-N-BE(2)c tumor model described in (FIG. 4C). FIG. 4G: The levels of phosphor-Chk1 (pChk1) and γH2A.X in SK-N-BE(2)c derived tumor samples were analyzed by IHC. Shown are representative images taken from tumors treated by vehicle only or by 40 mg/kg AOH1996. FIG. 4H: ES1^e/SCID mice bearing SK-N-AS derived xenograft tumors were treated with either 80 mg/kg of AOH1996 (black, n=7) for 8 d beginning 8 d after tumor implantation, 15 mg/kg of CPT-11 (n=8) for 3 d beginning 12 d after tumor implantation, or both agents (combination, n=8) under the same dosages and schedules as they were dosed alone. […] The p values determined by the Log-rank (Mantel-Cox) test between combination treatment and each of the control groups are p=0.0003 (Combination vs. NoRx), p=0.005 (Combination vs. AOH1996 alone), and p=0.024 (Combination vs. CPT-11 alone).
In vivo tumor model. […] Tumor size and animal weight were measured weekly. At the end of the experiment, tumors were isolated from sacrificed mice and analyzed by immunohistochemistry staining with antibodies specific for phosphor-Chk1 and γH2A.X.

[2] = test system: more than 70 cancer cell lines; test: Growth inhibition across cancer cell lines (GI50); type: cell-based; details: read-out: median concentration to achieve 50% growth inhibition (GI50); across more than 70 cancer cell lines
[3] = test system: SK-N-DZ neuroblastoma cells; test: Apoptosis (sub-G1, TUNEL assay), cancer cells; type: cell-based, human; details: 500 nM, 24 h
Description: as §1, §2

[4] = test system: SK-N-AS cells homozygous of the Y418A mutant RPB1 alleles; test: Growth of RPB1 Y418A (APIM) mutant cell lines; type: cell-based, human; details: 72 hrs; vs parent SK-N-AS

Q: What does the source list for `COc1cccc(Oc2ccccc2NC(=O)CNC(=O)c2cccc3ccccc23)c1` [AOH1996, N-(2-((2-(3-methoxyphenoxy)phenyl)amino)-2-oxoethyl)-1-naphthamide]?
A: apoptosis (7SM0032): Nor does it induce apoptosis in 7SM0032 cells; γH2A.X levels, cancer vs non-malignant cells (γH2A.X; 500 nM, SK-N-BE(2)c): caused accumulation of DNA damages as measured by γH2A.X levels in the SK-N-BE(2)c cancer cells, but not in non-malignant cells; γH2A.X levels, wildtype RPB1 vs Y418A mutant cells (γH2A.X; SK-N-AS, overnight): caused substantially more DNA damages as measured by γH2A.X levels in cells containing wildtype RPB1 allele than in cells homozygous of the Y418A mutant allele; change in cell-cycle profile (SH-SY5Y and SK-N-BE(2)c): G2/M and/or S phase arrest in cancer cells; pharmacodynamics markers in tumors (immunohistochemistry) ([1]; 40 mg/kg AOH1996 vs vehicle): Focal staining of γH2A.X and phospho-Chk1 were observed; tumor burden ([1]; 40 mg/kg twice daily, oral, vs vehicle): significantly reduced tumor burden; death, body weight ([1]; xenograft studies, 40 mg/kg twice daily): did not cause any death or significant weight loss; GI50 [2]: ~300 nM; apoptosis (sub-G1 population, TUNEL positivity) [3]: induced apoptosis; sensitivity of RPB1 Y418A mutant cells to growth inhibition [4]: significantly less sensitive to growth inhibition by AOH1996 than the parent cells
